The target of this test is Tubulin beta-1 chain (Homo sapiens, UniProt Q9H4B7). Description: Concentration required for 50% inhibition of tubulin polymerization.

pIC50: −log10 of the molar value.

Tubulin beta-1 chain, sequence (Q9H4B7 whole entry): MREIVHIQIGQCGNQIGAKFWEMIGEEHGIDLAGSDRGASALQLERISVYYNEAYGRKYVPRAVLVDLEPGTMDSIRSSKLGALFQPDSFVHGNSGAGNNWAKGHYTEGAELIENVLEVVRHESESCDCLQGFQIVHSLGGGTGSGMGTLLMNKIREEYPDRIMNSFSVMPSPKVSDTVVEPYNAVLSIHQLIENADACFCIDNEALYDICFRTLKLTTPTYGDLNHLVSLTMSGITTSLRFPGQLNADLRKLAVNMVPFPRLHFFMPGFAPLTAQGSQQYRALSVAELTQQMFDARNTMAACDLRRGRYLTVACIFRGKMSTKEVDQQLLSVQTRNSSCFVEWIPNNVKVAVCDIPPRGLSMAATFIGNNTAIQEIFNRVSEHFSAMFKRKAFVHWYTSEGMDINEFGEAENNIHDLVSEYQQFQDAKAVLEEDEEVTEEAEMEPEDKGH

In general, pIC50 refers to −log10 of the IC50, conventionally taken in molar units. A low value points to a large IC50. The compound `COc1ccc(/C=C\c2cc(O)c(OC)c(OC)c2)cc1F` gave a pIC50 of 5.90.
The result for `COc1cc(/C=C\c2ccc(C)c(C)c2)cc(OC)c1OC` reads 5.70; that for `COc1ccc(/C=C/C(=O)c2cc(OC)c(OC)c(OC)c2)cc1F`, 5.92.
As for `COc1cc(C(=O)/C=C/c2ccc(O)c(O)c2)cc(OC)c1OC`, the figure is under 4.00; as for `COc1ccc(COc2cc(OC)c(OC)c(OC)c2)cc1OCC=O`, 4.39; as for `COc1ccc(/C=C\c2cc(C)c(C)c(C)c2)cc1F`, 6.15.
As for `COc1ccc(/C=C/C(=O)c2ccc(OC)c(OC)c2OC)cc1F`, the figure is 5.10; as for `COc1ccc(OCc2cc(OC)c(OC)c(OC)c2)cc1CO`, under 4.00.
The compound `COc1cc(C(=O)/C=C/c2cc(F)c(OC)c(F)c2)cc(OC)c1OC` had a pIC50 of 4.92.
The result for `COc1ccc(/C=C\c2cc(C)c(C)c(C)c2)cc1` reads 6.19; that for `COc1ccc(/C=C(\C)C(O)c2cc(OC)c(OC)c(OC)c2)cc1O` (stereo not given), under 5.00; that for `COc1ccc(/C(C)=C/c2cc(OC)c(OC)c(OC)c2)cc1O`, 5.05.
`COc1ccc(CC(C)C(=O)c2cc(OC)c(OC)c(OC)c2)cc1O` (stereo not given) showed a negative logarithm of the IC50 (pIC50) of 5.40.
As for `COc1ccc(/C=C/C(=O)c2ccc(OC)c(OC)c2OC)cc1O`, the pIC50 was 6.35.
On to `COc1ccc(/C=C(\C)C(=O)c2cc(OC)c(OC)c(OC)c2)cc1F`, for which the pIC50 was 6.19.
In turn, `COc1ccc(/C=C/C(=O)c2cc(OC)c(OC)c(OC)c2)cc1N` had a pIC50 of 5.70.
Regarding `COc1ccc(/C=C\c2cc(OC)c(OC)c(OC)c2)cc1`, the pIC50 is 6.70.
As to `CCc1ccc(/C=C\c2cc(OC)c(OC)c(OC)c2)cc1`, the negative logarithm of the IC50 (pIC50) is 5.47.
Compound `COc1ccc(/C=C(/C)c2cc(OC)c(OC)c(OC)c2)cc1O` had a pIC50 of 6.89. Against the preceding compound, the pIC50 is 1.42 log units higher.
`COc1ccc(/C=C\c2cc(F)c(F)c(F)c2)cc1F` gave a pIC50 of 5.26. Compared with the last compound, the pIC50 is 1.63 log units lower.
In turn, `COc1ccc(OC)c(C(=O)/C(C)=C/c2ccc(N(C)C)cc2)c1` gave a pIC50 of 5.00.
For `COc1ccc(/C=C\c2ccccc2)cc1O`, the pIC50 is 5.60.
In turn, `COc1ccc(/C=C(/C)c2cc(OC)c(OC)c(OC)c2)cc1` showed a pIC50 of 5.89.
`COc1ccc(Nc2cc(OC)c(OC)c(OC)c2)cc1O` had a pIC50 of under 4.00.
On to `CC/C(=C/c1ccc(OC)c(O)c1)c1cc(OC)c(OC)c(OC)c1`, for which the pIC50 was 6.89.
Take `CCOc1cc(/C=C\c2ccc(OC)c(O)c2)cc(OCC)c1OCC`: the pIC50 is 6.30.
`COc1ccc(COc2cc(OC)c(OC)c(OC)c2)cc1OCC(O)CO` (stereo not given) showed a pIC50 of under 4.00.
Turning to `CO/C(=C\c1ccc(OC)c(F)c1)C(=O)c1cc(OC)c(OC)c(OC)c1`, the pIC50 was 6.33.
On to `COc1ccc(/C=C/C(=O)c2cc(OC)c(OC)c(OC)c2)cc1O`, for which the pIC50 was 6.21.
As for `COc1ccc(OCc2cc(OC)c(OC)c(OC)c2)cc1C=O`, the figure is 6.25; as for `COc1ccc(Oc2cc(OC)c(OC)c(OC)c2)cc1O`, 4.96; as for `COc1ccc(/C=C\c2cc(F)c(F)c(F)c2)cc1O`, 5.35.
Compound `COc1ccc(C(=O)/C=C/c2cc(O)c(O)c(O)c2)c(OC)c1OC` gave a pIC50 of under 4.00.
As to `CO/C(=C\c1cc(F)c(OC)c(F)c1)C(=O)c1cc(OC)c(OC)c(OC)c1`, the pIC50 was 5.77.
Consider `COc1ccc(/C=C\c2ccc(C)c(C)c2)cc1O`, for which the pIC50 was 5.51.
Consider `COc1cc(C(=O)/C(C)=C/c2cc(F)c(OC)c(F)c2)cc(OC)c1OC`, for which the pIC50 was 5.62.
The result for `COc1ccc(/C=C\c2ccc(C)c(C)c2)cc1F` reads 5.18; that for `CO/C(=C\c1ccc(OC)c(O)c1)C(=O)c1cc(OC)c(OC)c(OC)c1`, 6.29.
As for `COc1ccc(OCc2cc(OC)c(OC)c(OC)c2)cc1O`, the pIC50 was 4.68. This pIC50 lies 1.61 log units lower than the previous one.
`COc1ccc(/C=C\c2cc(C)c(C)c(C)c2)cc1O` had a pIC50 of 6.92.
Consider `COc1ccc(COc2cc(OC)c(OC)c(OC)c2)cc1O`, for which the pIC50 is 5.14.
In turn, `CCOc1cc(/C=C\c2ccc(OC)c(F)c2)cc(OCC)c1OCC` had a pIC50 of 5.92.
As for `COc1ccc(/C=C(\C)C(=O)c2cc(OC)c(OC)c(OC)c2)cc1O`, the figure is 6.34; as for `COc1ccc(/C=C(\C)C(=O)c2cc(OC)c(OC)c(OC)c2)cc1[N+](=O)[O-]`, under 5.00; as for `COc1ccc(C(=O)/C=C/c2cc(F)c(OC)c(F)c2)c(OC)c1OC`, 4.51.

The values are drawn from ChEMBL document CHEMBL1141176, “Quantitative structure-activity relationship (5D-QSAR) study of combretastatin-like analogues as inhibitors of tubulin assembly” (J Med Chem, 2005).
